The values that follow come from patent US12459951B2, “Compounds that interact with RAS superfamily proteins for treatment of cancers, inflammatory diseases, rasopathies, and fibrotic disease” (SHY Therapeutics, LLC, priority 2022, dated 2025).

Molecules are shown by their SMILES.

The subject of one test is TNF-alpha. As to the kind of experiment: TNF-alpha Quantification Assay (ELISA), LPS-stimulated RAW 264.7. It counts as cell-based. The following applies: Mus musculus, RAW264.7; at 10 μM; read-out: TNFα: % inh.
The next test has as its system Erk1/2 phosphorylation. Kind of test: Erk1/2 Phosphorylation Assay (western blot), Panc-1. The following applies: at 10 μM, * = activation. In kind it is cell-based, human. The essentials:
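KRas G12D Panc-1 cells were treated 6 h at 37° C with compound at 10 μM or serial dilutions for IC50 (0.3% DMSO). In method 1, cells were serum-starved overnight (0.5% FBS) and then given 1.5 ng/ml EGF for 15 min. In method 2, cells stayed in 10% FBS without stimulation. Lysate phospho-Erk1/2 (Thr202/Tyr204) was read by western blot.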
On the technique in general: Immunoblotting shows a protein as a band on a membrane.

The test system of the next test is Akt phosphorylation. Kind of test: Akt Phosphorylation Assay (western blot), Panc-1. In kind it is cell-based, human. The conditions noted are these: at 10 μM, * = activation. The essentials:
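Panc-1 (KRas G12D) cells were treated with compound at 10 μM final (0.3% DMSO) for 6 h at 37 °C, or with serial dilutions for IC50. Cells were either serum-starved overnight in 0.5% FBS and then stimulated with 1.5 ng/ml EGF for 15 min, or kept in 10% FBS without stimulation. Akt Ser473 phosphorylation in lysates was read by western blot.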

Consider `Cc1c(-c2ccn(C)n2)cn2nc(-c3nccn3C)nc(Nc3cc(-c4ccccc4)[nH]n3)c12` [Compound 263, 5-Methyl-2-(1-methyl-1H-imidazol-2-yl)-6-(1-methyl-1H-pyrazol-3-yl)-N-(5-phenyl-1H-pyrazol-3-yl)pyrrolo[2,1-f][1,2,4]triazin-4-amine], for which the inhibition at 10 µM with TNF-alpha fell in the range of 50 to 74%. For the same compound, the “% inh of Erk1/2 phosphorylation in Panc-1” value with Erk1/2 phosphorylation was “A (1-25% inhibition)”. For the same compound, the “% inh of Akt phosphorylation in Panc-1” value in the test with Akt phosphorylation is given as “D* (85-100% activation)”.

`COc1cccc(-c2cn3nc(-c4nccn4C)nc(N[C@H]4C[C@@H](OC)C4)c3c2-c2ccccc2)c1C` [Compound 269, 6-(3-Methoxy-2-methylphenyl)-N-((1s,3s)-3-methoxycyclobutyl)-2-(1-methyl-1H-imidazol-2-yl)-5-phenylpyrrolo[2,1-f][1,2,4]triazin-4-amine]: the inhibition at 10 µM with TNF-alpha was 75 to 100%. Also, the “% inh of Erk1/2 phosphorylation in Panc-1” value in the test on Erk1/2 phosphorylation is “D (85-100% inhibition)”. Besides, in the test on Akt phosphorylation, the “% inh of Akt phosphorylation in Panc-1” value was “C (50-84% inhibition)”.

For the compound `COc1cc(Nc2nc(-c3nccn3C)nn3cc(-c4cccc(OC)n4)c(C)c23)ncn1` [Compound 65, 6-(6-Methoxypyridin-2-yl)-N-(6-methoxypyrimidin-4-yl)-5-methyl-2-(1-methyl-1H-imidazol-2-yl)pyrrolo[2,1-f][1,2,4]triazin-4-amine], the inhibition at 10 µM with TNF-alpha lay within 1 to 24%. In addition, the “% inh of Erk1/2 phosphorylation in Panc-1” value with Erk1/2 phosphorylation is given as “A (1-25% inhibition)”. The “% inh of Akt phosphorylation in Panc-1” value in the test on Akt phosphorylation is recorded as “D* (85-100% activation)”.

Turning to `Cc1c(-c2ccn(C)n2)cn2nc(-c3nccn3C)nc(Nc3cc(-n4ccnc4)ccn3)c12` [Compound 245, N-(4-(1H-imidazol-1-yl)pyridin-2-yl)-5-methyl-2-(1-methyl-1H-imidazol-2-yl)-6-(1-methyl-1H-pyrazol-3-yl)pyrrolo[2,1-f][1,2,4]triazin-4-amine], the inhibition at 10 µM with TNF-alpha came out at 0%. Further, the “% inh of Erk1/2 phosphorylation in Panc-1” value in the test with Erk1/2 phosphorylation is reported as 0 (0% inhibition). Also, in the test with Akt phosphorylation, the “% inh of Akt phosphorylation in Panc-1” value is on record as “D* (85-100% activation)”.

As to `COc1cccc(-c2cn3nc(-c4nccn4C)nc(N[C@@H]4CC[C@@H](OC)C4)c3c2-c2ccccn2)c1F` (racemic) [Compound 46, rac 6-(2-Fluoro-3-methoxyphenyl)-N-((1R,3R)-3-methoxycyclopentyl)-2-(1-methyl-1H-imidazol-2-yl)-5-(pyridin-2-yl)pyrrolo[2,1-f][1,2,4]triazin-4-amine], the inhibition at 10 µM in the test with TNF-alpha lay in the range of 75 to 100%. Besides, the “% inh of Erk1/2 phosphorylation in Panc-1” value in the test on Erk1/2 phosphorylation is 0 (0% inhibition). The “% inh of Akt phosphorylation in Panc-1” value in the test with Akt phosphorylation is recorded as 0 (0% inhibition).

For the compound `COc1cc(Nc2nc(-c3nccn3C)nn3cc(-c4ccn(C)n4)c(C)c23)ncc1-n1cnc(C)c1` [Compound 244, N-(4-Methoxy-5-(4-methyl-1H-imidazol-1-yl)pyridin-2-yl)-5-methyl-2-(1-methyl-1H-imidazol-2-yl)-6-(1-methyl-1H-pyrazol-3-yl)pyrrolo[2,1-f][1,2,4]triazin-4-amine], the inhibition at 10 µM with TNF-alpha is 0%. In the test on Erk1/2 phosphorylation, the “% inh of Erk1/2 phosphorylation in Panc-1” value is 0 (0% inhibition). In addition, the “% inh of Akt phosphorylation in Panc-1” value with Akt phosphorylation is listed as “D* (85-100% activation)”.

`Cc1c(-c2ccn(C)n2)cn2nc(-c3nccn3C)nc(Nc3cc(-c4ccccn4)[nH]n3)c12` [Compound 265, 5-Methyl-2-(1-methyl-1H-imidazol-2-yl)-6-(1-methyl-1H-pyrazol-3-yl)-N-(5-(pyridin-2-yl)-1H-pyrazol-3-yl)pyrrolo[2,1-f][1,2,4]triazin-4-amine]: the inhibition at 10 µM in the test on TNF-alpha lay within 25 to 49%. In addition, the “% inh of Erk1/2 phosphorylation in Panc-1” value in the test with Erk1/2 phosphorylation is listed as “A* (1-25% activation)”. Besides, the “% inh of Akt phosphorylation in Panc-1” value in the test with Akt phosphorylation is on record as “D* (85-100% activation)”.

As for `Cc1c(-c2ccn(C)n2)cn2nc(-c3nccn3C)nc(Nc3cc(C(F)F)[nH]n3)c12` [Compound 258, N-(5-(Difluoromethyl)-1H-pyrazol-3-yl)-5-methyl-2-(1-methyl-1H-imidazol-2-yl)-6-(1-methyl-1H-pyrazol-3-yl)pyrrolo[2,1-f][1,2,4]triazin-4-amine], the inhibition at 10 µM in the test on TNF-alpha was found to be 0%. Besides, in the test with Erk1/2 phosphorylation, the “% inh of Erk1/2 phosphorylation in Panc-1” value is listed as “A* (1-25% activation)”. In the test on Akt phosphorylation, the “% inh of Akt phosphorylation in Panc-1” value is “A (1-25% inhibition)”.

Regarding `Cc1c(-c2ccn(C)n2)cn2nc(-c3nccn3C)nc(-n3[nH]c(N)cc3=O)c12` [Compound 261, 5-Amino-2-(5-methyl-2-(1-methyl-1H-imidazol-2-yl)-6-(1-methyl-1H-pyrazol-3-yl)pyrrolo[2,1-f][1,2,4]triazin-4-yl)-1,2-dihydro-3H-pyrazol-3-one], in the test on TNF-alpha, the inhibition at 10 µM is 1 to 24%. The “% inh of Erk1/2 phosphorylation in Panc-1” value with Erk1/2 phosphorylation was “B (26-49% inhibition)”. Also, in the test with Akt phosphorylation, the “% inh of Akt phosphorylation in Panc-1” value is listed as “B (26-49% inhibition)”.

For the compound `Cc1c(-c2ccn(C(C)C)n2)cn2nc(-c3nccn3C)nc(Nc3cnccn3)c12` [Compound 62, 6-(1-Isopropyl-1H-pyrazol-3-yl)-5-methyl-2-(1-methyl-1H-imidazol-2-yl)-N-(pyrazin-2-yl)pyrrolo[2,1-f][1,2,4]triazin-4-amine], the inhibition at 10 µM with TNF-alpha lay in the range of 1 to 24%. Further, the “% inh of Erk1/2 phosphorylation in Panc-1” value in the test on Erk1/2 phosphorylation is “A (1-25% inhibition)”. Besides, the “% inh of Akt phosphorylation in Panc-1” value in the test on Akt phosphorylation is “D* (85-100% activation)”.

On to `Cc1c(-c2ccn(C(C)C)n2)cn2nc(-c3nccn3C)nc(Nc3ccncn3)c12` [Compound 55, 6-(1-Isopropyl-1H-pyrazol-3-yl)-5-methyl-2-(1-methyl-1H-imidazol-2-yl)-N-(pyrimidin-4-yl)pyrrolo[2,1-f][1,2,4]triazin-4-amine], for which, in the test on TNF-alpha, the inhibition at 10 µM lay within 1 to 24%. Moreover, in the test with Erk1/2 phosphorylation, the “% inh of Erk1/2 phosphorylation in Panc-1” value is reported as “A (1-25% inhibition)”. The “% inh of Akt phosphorylation in Panc-1” value with Akt phosphorylation is “A* (1-25% activation)”.

`COc1ccc(Nc2nc(-c3nccn3C)nn3cc(-c4ccn(C(C)C)n4)c(C)c23)nn1` [Compound 74, 6-(1-Isopropyl-1H-pyrazol-3-yl)-N-(6-methoxypyridazin-3-yl)-5-methyl-2-(1-methyl-1H-imidazol-2-yl)pyrrolo[2,1-f][1,2,4]triazin-4-amine]: in the test with TNF-alpha, the inhibition at 10 µM is 1 to 24%. Besides, the “% inh of Erk1/2 phosphorylation in Panc-1” value in the test with Erk1/2 phosphorylation was “D* (85-100% activation)”. In addition, the “% inh of Akt phosphorylation in Panc-1” value in the test with Akt phosphorylation is “D* (85-100% activation)”.

In the case of `Cc1c(-c2ccn(C)n2)cn2nc(-c3nccn3C)nc(Nc3cc(-c4cccnc4)[nH]n3)c12` [Compound 264, 5-Methyl-2-(1-methyl-1H-imidazol-2-yl)-6-(1-methyl-1H-pyrazol-3-yl)-N-(5-(pyridin-3-yl)-1H-pyrazol-3-yl)pyrrolo[2,1-f][1,2,4]triazin-4-amine], in the test on TNF-alpha, the inhibition at 10 µM was in the range of 25 to 49%. For the same compound, the “% inh of Erk1/2 phosphorylation in Panc-1” value in the test on Erk1/2 phosphorylation is “B* (26-49% activation)”. Moreover, in the test with Akt phosphorylation, the “% inh of Akt phosphorylation in Panc-1” value is reported as “D* (85-100% activation)”.

On to `COc1ccc(-c2cn3nc(-c4nccn4C)nc(Nc4cc(OC)ncn4)c3c2C)cn1` [Compound 66, 6-(6-Methoxypyridin-3-yl)-N-(6-methoxypyrimidin-4-yl)-5-methyl-2-(1-methyl-1H-imidazol-2-yl)pyrrolo[2,1-f][1,2,4]triazin-4-amine], for which, in the test with TNF-alpha, the inhibition at 10 µM was 1 to 24%. In the test with Erk1/2 phosphorylation, the “% inh of Erk1/2 phosphorylation in Panc-1” value is on record as “C (50-84% inhibition)”. Also, the “% inh of Akt phosphorylation in Panc-1” value with Akt phosphorylation is listed as “D* (85-100% activation)”.
